Results published in patent US20220218664A1, “DRUG AND METHOD FOR TREATING OR PREVENTING COMPLICATIONS FROM DIABETES, USING SAID DRUG” (TMS Co., Ltd., priority 2019, published 2022).

Tests used:
Type in all cases: in vivo, C57BL/6J male mice
[1] = Body weight (BW) in streptozotocin-induced diabetic mice; conditions: 10 mg/kg i.p. once a day
Method: (§1) 9-week-old C57BL/6J male mice were purchased and familiarized with an animal facility for 1 week. 200 mg/kg of streptozotocin (streptozotocin; STZ) was administered […] into the peritoneal cavity of 10-week-old mice to prepare streptozotocin-induced diabetic mice (hereinafter also referred to as “STZ administration week 0”). One week after the administration of streptozotocin, blood was collected from the tail vein of the mice, and the blood glucose level (BS) was measured using an automatic blood glucose measuring device (product name: Medisafe (trademark) Mini GR-102, made by Terumo (Co)). Mice having a blood glucose level of 400 mg/dL or more were determined to be diabetic mice.
(§2) The SMTP-44D groups, the edaravone group, and the pregabalin group were administered SMTP-44D (0.3 mg/kg, 3 mg/kg, or 30 mg/kg doses, respectively), edaravone (10 mg/kg dose), or pregabalin (10 mg/kg dose) into the peritoneal cavity once a day for 3 consecutive weeks from the day following the first week to the fourth week after STZ administration.
For the above-mentioned STZ group, SMTP-44D groups, edaravone group, pregabalin group, and control group mice, the following measurements were conducted every week from the 0th week, which began on the day when streptozotocin (STZ) was administered, to the 4th week (that is, a total of five times). As algesia tests, the following von Frey test and hot plate test were conducted, and hind plantar blood flow, body weight (BW), and blood glucose level (BS) were measured using the above-mentioned automatic blood glucose measure device. Note, for example, the 0th week represents the 0th day. That is, the measurements were conducted on the 0th, 7th, 14th, 21st, and 28th days.

[2] = system: streptozotocin-induced diabetic mice; test: Sciatic nerve conduction velocity; conditions: 10 mg/kg i.p. once a day, 4th week
Method: as §1, §2
Sciatic nerves of the above-mentioned STZ group, SMTP-44D groups, edaravone group, pregabalin group, and control group mice on the 4th week were exposed under isoflurane anesthesia, and then, using the full-field laser perfusion imager, their sciatic nerve blood flows (perfusion unit: PU) were measured. After the sciatic nerve blood flows were measured, a voltage was output from a PowerLab through the […] to impart an electrical stimulus to the sciatic nerves using needle electrodes. The electrical stimulus went through the Analog Stimulus Isolator via recording electrodes attached to the gastrocnemius and was input into the PowerLab, and thus neuromuscular function response curves were measured. The sciatic nerves were stimulated between two points at 8-mm intervals. The sciatic nerve conduction velocity (m/s) was calculated by dividing the […]. The sciatic nerve blood flow and sciatic nerve conduction velocity were measured using a Hot-1 small-sized heating controller and small-sized body temperature retention device (model number: […]-1), maintaining the rectal temperature at 37° C. The measurement results are described in Table 11.

IL-6 = test: Inflammatory cytokine IL-6 in sciatic nerve (ELISA); conditions: 10 mg/kg i.p. once a day, 4th week
Method: as §1, §2
(§3) The sciatic nerves of the above-mentioned STZ group, SMTP-44D group (30 mg/kg), edaravone group, pregabalin group, and control group mice on the 4th week were homogenized using the RIPA buffer containing a protease inhibitor cocktail. Moreover, centrifugation was conducted at 4° C. for 15 minutes at 10,000 g, and the supernatant was collected and used for measuring TNF-α concentration (pg/mL), IL-1β concentration (pg/mL), IL-6 concentration (pg/mL), and total protein concentration (μg/mL), respectively. An ELISA assay kit was used for the TNF-α, IL-1β, and IL-6 concentrations. The total protein concentration was measured by using a Pierce (trademark) BCA Protein Assay Kit. The inflammatory cytokine level (pg/mg protein) in the total protein was calculated from the TNF-α concentration (pg/mL), IL-1β concentration (pg/mL), and IL-6 concentration (pg/mL), and total protein concentration (μg/mL).

[3] = system: streptozotocin-induced diabetic mice; test: Von Frey test: evaluating mechanical stimulus; conditions: 10 mg/kg i.p. once a day
Method: as §1, §2
The above-mentioned STZ group, SMTP-44D groups, edaravone group, pregabalin group, and control group mice were put in grid-like boxes, respectively, and were familiarized for one hour. After the familiarization, by using a Dynamic Plantar Aesthesiometer (tactometer) (manufactured by UGO BASILE Inc.), 1 g/s (that, pressurization increased by 1 g per second) of stimulation was imparted to the hind legs of these mice to measure mechanical thresholds (g) from the start of stimulation to the time when the mice withdrew their legs. The measurements were conducted for both hind legs three times at intervals of three minutes or longer, respectively. A mean value of three mechanical thresholds (g) was calculated for 1 mouse, and then a mean value of the 12 mice for the respective groups was found.

malondialdehyde: MDA = test: Oxidative stress (MDA, TBARS assay) in sciatic nerve; conditions: 10 mg/kg i.p. once a day, 4th week
Method: as §1, §2
The sciatic nerves of the above-mentioned STZ group, SMTP-44D group (30 mg/kg), edaravone group, pregabalin group, and control group mice in the 4th week were homogenized using an RIPA buffer containing a protease inhibitor cocktail. Moreover, centrifugation was conducted at 4° C. for 15 minutes at 1600 g, and the supernatant was collected and used for measuring MDA (μM) and total protein concentration (μg/mL), respectively. MDA was measured using a TBARS Assay Kit. The total protein concentration was measured using a Pierce (Trademark) BCA Protein Assay Kit. Oxidative stress levels (nmol/mg protein) were calculated from MDA (μM) and the total protein concentration (μg/mL).

IL-1β = test: Inflammatory cytokine IL-1β in sciatic nerve (ELISA); conditions: 10 mg/kg i.p. once a day, 4th week
Method: as §1, §2, §3

[4] = 0th week (before dosing), listed as edaravone
[5] = 1st week (before dosing), listed as edaravone
[6] = 0th week (before dosing), listed as pregabalin
[7] = 1st week (before dosing), listed as pregabalin

In the case of `CC1=NN(c2ccccc2)C(=O)C1` [Edaravone, edaravone], the “Body weight decrease between the 0th week and 4th week” value [1] is reported as 2.4 g, the “BW (body weight)” value ([1]; 0th week (before dosing)) is reported as 23.4 ± 0.3 g and the “BW (body weight)” value [1, 4] is reported as 23.4 ± 0.3 g. For the same compound, the “BW (body weight)” value ([1]; 1st week (before dosing)) was 21.9 ± 0.4 g, the “BW (body weight)” value [1, 5] was 21.9 ± 0.4 g and the “BW (body weight)” value ([1]; 2nd week) was 21.6 ± 0.4 g. The “BW (body weight)” value ([1]; 2nd week, listed as edaravone) was 21.6 ± 0.4 g, the “BW (body weight)” value ([1]; 3rd week) was 21.3 ± 0.5 g and the “BW (body weight)” value ([1]; 3rd week, listed as edaravone) was 21.3 ± 0.5 g. For the same compound, the “BW (body weight)” value ([1]; 4th week) was 21.0 ± 0.5 g, the “BW (body weight)” value ([1]; 4th week, listed as edaravone) was 21.0 ± 0.5 g and the “Sciatic nerve conduction velocity” value [2] was 63.6 ± 1.8 m/s. The “Sciatic nerve conduction velocity” value ([2]; listed as edaravone) was 63.6±1.8 m/s, the IL-6 (IL-6) was 165.83 ± 10.21 pg/mg protein and the IL-6 (IL-6; listed as edaravone) was 165.83±10.21 pg/mg protein. For the same compound, the “von Frey test mechanical threshold” value ([3]; 0th week (before dosing)) was 5.1 ± 0.1 g, the “von Frey test mechanical threshold” value [3, 4] was 5.1 ± 0.1 g and the “von Frey test mechanical threshold” value ([3]; 1st week (before dosing)) was 4.1 ± 0.1 g. For the same compound, the “von Frey test mechanical threshold” value [3, 5] was 4.1 ± 0.1 g, the “von Frey test mechanical threshold” value ([3]; 2nd week) was 4.6 ± 0.2 g and the “von Frey test mechanical threshold” value ([3]; 2nd week, listed as edaravone) was 4.6 ± 0.2 g. The “von Frey test mechanical threshold” value ([3]; 3rd week) was 4.8 ± 0.1 g, the “von Frey test mechanical threshold” value ([3]; 3rd week, listed as edaravone) was 4.8 ± 0.1 g and the “von Frey test mechanical threshold” value ([3]; 4th week) was 5.1 ± 0.2 g. For the same compound, the “von Frey test mechanical threshold” value ([3]; 4th week, listed as edaravone) was 5.1 ± 0.2 g, the “MDA (oxidative stress)” value (malondialdehyde: MDA) was 2.98 ± 0.39 nmol/mg protein and the “MDA (oxidative stress)” value (malondialdehyde: MDA; listed as edaravone) was 2.98±0.39 nmol/mg protein. For the same compound, the IL-1β (IL-1β) was 24.54 ± 4.52 pg/mg protein and the IL-1β (IL-1β; listed as edaravone) was 24.54±4.52 pg/mg protein.

In the case of `CC(C)C[C@H](CN)CC(=O)O` [Pregabalin, pregabalin], the “Body weight decrease between the 0th week and 4th week” value [1] is reported as 1.4 g, the “BW (body weight)” value ([1]; 0th week (before dosing)) is reported as 21.8 ± 0.3 g and the “BW (body weight)” value [1, 6] is reported as 21.8 ± 0.3 g. The “BW (body weight)” value ([1]; 1st week (before dosing)) was 21.4 ± 0.3 g, the “BW (body weight)” value [1, 7] was 21.4 ± 0.3 g and the “BW (body weight)” value ([1]; 2nd week) was 21.3 ± 0.4 g. For the same compound, the “BW (body weight)” value ([1]; 2nd week, listed as pregabalin) was 21.3 ± 0.4 g, the “BW (body weight)” value ([1]; 3rd week) was 21.0 ± 0.2 g and the “BW (body weight)” value ([1]; 3rd week, listed as pregabalin) was 21.0 ± 0.2 g. The “BW (body weight)” value ([1]; 4th week) was 20.4 ± 0.2 g, the “BW (body weight)” value ([1]; 4th week, listed as pregabalin) was 20.4 ± 0.2 g and the “Sciatic nerve conduction velocity” value [2] was 55.9 ± 1.4 m/s. For the same compound, the “Sciatic nerve conduction velocity” value ([2]; listed as pregabalin) was 55.9±1.4 m/s, the IL-6 (IL-6) was 166.60 ± 13.57 pg/mg protein and the IL-6 (IL-6; listed as pregabalin) was 166.60±13.57 pg/mg protein. The “von Frey test mechanical threshold” value ([3]; 0th week (before dosing)) was 5.0 ± 0.2 g, the “von Frey test mechanical threshold” value [3, 6] was 5.0 ± 0.2 g and the “von Frey test mechanical threshold” value ([3]; 1st week (before dosing)) was 4.0 ± 0.1 g. For the same compound, the “von Frey test mechanical threshold” value [3, 7] was 4.0 ± 0.1 g, the “von Frey test mechanical threshold” value ([3]; 2nd week) was 4.6 ± 0.2 g and the “von Frey test mechanical threshold” value ([3]; 2nd week, listed as pregabalin) was 4.6 ± 0.2 g. For the same compound, the “von Frey test mechanical threshold” value ([3]; 3rd week) was 4.6 ± 0.2 g, the “von Frey test mechanical threshold” value ([3]; 3rd week, listed as pregabalin) was 4.6 ± 0.2 g and the “von Frey test mechanical threshold” value ([3]; 4th week) was 4.7 ± 0.2 g. For the same compound, the “von Frey test mechanical threshold” value ([3]; 4th week, listed as pregabalin) was 4.7 ± 0.2 g, the “MDA (oxidative stress)” value (malondialdehyde: MDA) was 4.02 ± 0.59 nmol/mg protein and the “MDA (oxidative stress)” value (malondialdehyde: MDA; listed as pregabalin) was 4.02±0.59 nmol/mg protein. It also gave an IL-1β (IL-1β) of 58.04 ± 4.47 pg/mg protein and an IL-1β (IL-1β; listed as pregabalin) of 58.04±4.47 pg/mg protein.
